Reference: paper PMC8362182, “Acetylenic Replacement of Albicidin's Methacrylamide Residue Circumvents Detrimental E/Z Photoisomerization and Preserves Antibacterial Activity” (Chemistry (Weinheim an Der Bergstrasse, Germany), 2021)
In brackets after ≈: the same amount, converted by molar mass. Read-outs that look alike come from different tables or passages of the source.

Legend:
[1] = test system: T1, B. subtilis DSM10; experiment: microbe, parasite or virus in culture; parameters: broth microdilution MIC, CLSI M07-A9, MHB II; settings: Bacillus subtilis
T1 construct: DSM10
Description: (§1) 2 Procedures for Biological Assays. Microdilution Assay. Minimal inhibitory concentration (MIC) values were determined according to the ninth edition of the Approved Standard M07-A9. The test was carried out for six different bacterial strains (E.coli DSM1116 [Gram-negative], E. coli BW25113 [Gram-negative], B. subtilis DSM10 [Gram-postive], M. luteus DSM1790 [Gram-postive], M. phlei DSM750 [Gram-postive], S. typhimurium TA100 [Gram-negative]. 20 µL of cryo stock of each strain were inoculated in 20 mL LB medium (Lysogeny broth: 10 g/L peptone, 5 g/L yeast extract, 5 g/L NaCl) followed by incubation overnight at 37 °C, 200 rpm. The test inoculum was adjusted by the 0.5 McFarland Standard (OD625 from 0.08 to 0.1). Within 15 min of preparation, the adjusted inoculum suspension was diluted in MHBII (BBLTM Mueller-Hinton Broth II, Becton, Dickinson and Company, New Jersey, USA) so that each well contained approximately 5 × 10^5 CFU/mL in a final volume of 100 µL. 95 µL of the inoculum were applied per well and 5 µL of the (diluted) antibiotic substance were added. Previously, the dry antibiotic compounds (1 to 15 and antibiotic control Ciprofloxacin (CIP)) were dissolved in DMSO (100%) with a concentration of 2560 µg/mL, and the so obtained stock solutions were further diluted in DMSO (100%). 5 µL of each antibiotic dilution were applied to the microdilution tray to reach final concentrations of 8 µg/mL to 0.016 µg/mL. One row of each well plate served as a growth control without antibiotic substances and another row of the microdilution tray served as sterility control (only MHB II-media). The antimicrobial effect of the solvent (DMSO) was tested by adding 5 µL DMSO to several wells. Purity check and cell titer control were performed according to International Standard M07-

[2] = test system: T2, M. luteus DSM1790; experiment: microbe, parasite or virus in culture; parameters: broth microdilution MIC, CLSI M07-A9, MHB II; settings: Micrococcus luteus
T2 construct: DSM1790
Description: as §1

[3] = test system: T3, E. coli BW25113; experiment: microbe, parasite or virus in culture; parameters: broth microdilution MIC, CLSI M07-A9, MHB II; settings: Escherichia coli
T3 construct: BW25113
Description: as §1

[4] = test system: T4, S. typhimurium TA100; experiment: microbe, parasite or virus in culture; parameters: broth microdilution MIC, CLSI M07-A9, MHB II; settings: Salmonella enterica
T4 construct: TA100
Description: as §1

[5] = test system: T1, B. subtilis DSM10; experiment: microbe, parasite or virus in culture; parameters: broth microdilution MIC in Mueller-Hinton Broth II, CLSI M07-A9; settings: Bacillus subtilis
Description: (§2) 2 Procedures for Biological Assays. Microdilution Assay. Minimal inhibitory concentration (MIC) values were determined according to the ninth edition of the Approved Standard M07-A9. The test was carried out for six different bacterial strains (E.coli DSM1116 [Gram-negative], E. coli BW25113 [Gram-negative], B. subtilis DSM10 [Gram-postive], M. luteus DSM1790 [Gram-postive], M. phlei DSM750 [Gram-postive], S. typhimurium TA100 [Gram-negative]. 20 µL of cryo stock of each strain were inoculated in 20 mL LB medium (Lysogeny broth: 10 g/L peptone, 5 g/L yeast extract, 5 g/L NaCl) followed by incubation overnight at 37 °C, 200 rpm. The test inoculum was adjusted by the 0.5 McFarland Standard (OD625 from 0.08 to 0.1). Within 15 min of preparation, the adjusted inoculum suspension was diluted in MHBII (BBLTM Mueller-Hinton Broth II, Becton, Dickinson and Company, New Jersey, USA) so that each well contained approximately 5 × 10^5 CFU/mL in a final volume of 100 µL. 95 µL of the inoculum were applied per well and 5 µL of the (diluted) antibiotic substance were added. Previously, the dry antibiotic compounds (1 to 15 and antibiotic control Ciprofloxacin (CIP)) were dissolved in DMSO (100%) with a concentration of 2560 µg/mL, and the so obtained stock solutions were further diluted in DMSO (100%). 5 µL of each antibiotic dilution were applied to the microdilution tray to reach final concentrations of 8 µg/mL to 0.016 µg/mL. One row of each well plate served as a growth control without antibiotic substances and another row of the microdilution tray served as sterility control (only MHB II-media). The antimicrobial effect of the solvent (DMSO) was tested by adding 5 µL DMSO to several wells. […] After UV exposure, we observed a second resonance set mainly for signals arising from residues MCA and pABA‐1. The new signals for the methyl, vinyl and aromatic protons of MCA were clearly shifted up‐field. To provide evidence that the second resonance set arose from the Z isomer, we performed 2D nuclear Overhauser enhancement (NOE) measurements, which unambiguously confirmed the expected atomic distances in the two isomeric states (Figure S1 in the Supporting Information). While only a small portion of the initial E state (t=0 h) was converted after t=2.5 h, an almost complete conversion to the Z isomer was detected after t=16 h. […] After 32 h, however, the equilibrium had also been reached and approximately 65 % of the fluoro analogue adopted the Z‐isomeric form (Figure S2). It is important to note that significant accumulation of the (Z)‐isomer also occurred when albicidin samples were exposed to sunlight (ca. 50 and 80 % Z after 32 and 160 h daylight, respectively) underlining the vulnerability of 1 during routine handling. These findings became even more relevant when we determined minimal inhibitory concentrations (MICs) against a panel of bacteria (Table S1). […] The fact, that the albicidin producer X. albilineans inhabits the xylem of sugar cane, which is exposed to sunlight, could severely impact the stability of albicid

[6] = test system: T2, M. luteus DSM1790; experiment: microbe, parasite or virus in culture; parameters: broth microdilution MIC in Mueller-Hinton Broth II, CLSI M07-A9; settings: Micrococcus luteus
Description: as §2

[7] = test system: T5, E. coli DSM1116; experiment: microbe, parasite or virus in culture; parameters: broth microdilution MIC in Mueller-Hinton Broth II, CLSI M07-A9
T5 construct: DSM1116
Description: as §2

[8] = test system: T3, E. coli BW25113; experiment: microbe, parasite or virus in culture; parameters: broth microdilution MIC in Mueller-Hinton Broth II, CLSI M07-A9; settings: Escherichia coli
Description: as §2

[9] = test system: T4, S. typhimurium TA100; experiment: microbe, parasite or virus in culture; parameters: broth microdilution MIC in Mueller-Hinton Broth II, CLSI M07-A9; settings: Salmonella enterica
Description: as §2

[10] = biological target: T6, E. coli DNA gyrase (Escherichia coli, UniProt P0AES4+P0AES6); experiment: DNA gyrase supercoiling assay; type: biochemical; settings: tested at 45 nM
T6 construct: gene gyrA; holoenzyme A2B2 (known biology)
T6 sequence (P0AES4 2-875, one chain of several): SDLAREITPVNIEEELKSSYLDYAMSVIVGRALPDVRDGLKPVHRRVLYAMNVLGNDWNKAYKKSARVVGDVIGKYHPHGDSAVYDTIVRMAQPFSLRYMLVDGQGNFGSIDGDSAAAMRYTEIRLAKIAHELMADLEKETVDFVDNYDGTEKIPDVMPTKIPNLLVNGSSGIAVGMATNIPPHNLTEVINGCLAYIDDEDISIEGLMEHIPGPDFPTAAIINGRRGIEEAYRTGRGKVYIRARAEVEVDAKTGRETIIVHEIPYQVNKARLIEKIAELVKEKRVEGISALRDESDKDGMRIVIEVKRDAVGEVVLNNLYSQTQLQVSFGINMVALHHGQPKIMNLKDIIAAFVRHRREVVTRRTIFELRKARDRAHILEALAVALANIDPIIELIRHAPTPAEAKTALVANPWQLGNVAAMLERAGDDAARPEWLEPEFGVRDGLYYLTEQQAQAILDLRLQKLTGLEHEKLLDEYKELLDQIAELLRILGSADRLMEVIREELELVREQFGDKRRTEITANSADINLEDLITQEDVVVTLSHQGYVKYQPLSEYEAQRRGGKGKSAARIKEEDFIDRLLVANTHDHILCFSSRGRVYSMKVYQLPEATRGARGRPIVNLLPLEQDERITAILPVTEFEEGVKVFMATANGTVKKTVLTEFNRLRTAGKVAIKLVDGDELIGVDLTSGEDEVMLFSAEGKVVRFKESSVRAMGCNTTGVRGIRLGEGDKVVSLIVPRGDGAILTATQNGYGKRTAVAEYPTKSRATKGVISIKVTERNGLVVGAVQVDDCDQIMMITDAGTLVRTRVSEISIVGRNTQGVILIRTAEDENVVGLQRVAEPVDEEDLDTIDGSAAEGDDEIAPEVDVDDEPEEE

[11] = test system: T5, E. coli DSM1116; experiment: microbe, parasite or virus in culture; parameters: broth microdilution MIC, CLSI M07-A9, MHB II; settings: Escherichia coli
Description: as §1

[12] = Escherichia coli, DSM1116, read-out: MIC

MIC ([7]; inhibitor, CIP)	Compound	MIC [1]	MIC [2]	MIC [3]	MIC [4]	MIC [5]	MIC [6]	MIC [7, 12]	MIC [8]	MIC [9]	inhibition at 45 nM [10]	MIC [11]	MIC ([5]; dark sample, 100% E isomer)	MIC ([6]; dark sample, 100% E isomer)	MIC ([7]; Escherichia coli, dark sample, 100% E isomer)	MIC ([8]; dark sample, 100% E isomer)	MIC ([9]; dark sample, 100% E isomer)
0.031 µg/mL (≈ 0.0936 µM)	O=C(O)c1cn(C2CC2)c2cc(N3CCNCC3)c(F)cc2c1=O [CIP, ciprofloxacin]	0.25 µg/mL (≈ 0.754 µM)	1 µg/mL (≈ 3.02 µM)	≤ 0.016 µg/mL	≤ 0.016 µg/mL	0.25 µg/mL (≈ 0.754 µM)	1 µg/mL (≈ 3.02 µM)	0.016 µg/mL (≈ 0.0483 µM)	≤ 0.016 µg/mL	≤ 0.016 µg/mL	–	–	–	–	–	–	–
–	COc1c(NC(=O)c2ccc(NC(=O)c3ccc(NC(=O)[C@H](CC#N)NC(=O)c4ccc(NC(=O)/C(C)=C\c5ccc(O)cc5)cc4)cc3)c(OC)c2O)ccc(C(=O)O)c1O [Z isomer of albicidin]	–	–	–	–	–	–	–	–	–	the Z isomer was incapable of inhibiting DNA gyrase	–	–	–	–	–	–
–	COc1c(NC(=O)c2ccc(NC(=O)c3ccc(NC(=O)[C@H](CC#N)NC(=O)c4ccc(NC(=O)/C(C)=C/c5ccc(O)cc5)cc4)cc3)c(OC)c2O)ccc(C(=O)O)c1O [compound 1, albicidin]	0.25 µg/mL (≈ 0.297 µM)	1 µg/mL (≈ 1.19 µM)	0.063 µg/mL (≈ 0.0747 µM)	≤ 0.016 µg/mL	0.25 µg/mL (≈ 0.297 µM)	1 µg/mL (≈ 1.19 µM)	0.063 µg/mL (≈ 0.0747 µM)	0.063 µg/mL (≈ 0.0747 µM)	≤ 0.016 µg/mL	–	0.063 µg/mL (≈ 0.0747 µM)	0.25 µg/mL (≈ 0.297 µM)	1 µg/mL (≈ 1.19 µM)	0.063 µg/mL (≈ 0.0747 µM)	0.063 µg/mL (≈ 0.0747 µM)	0.016 µg/mL (≈ 0.019 µM)
